Consider 3 compounds from patent US12091378B2, “Therapeutics for central nervous system disorders” (1GLOBE BIOMEDICAL CO., LTD., priority 2017, dated 2024).

Structures are written as SMILES. Where a name gives a salt, the structure may show the parent alone.

In data set [1] the test system is CPZ-induced demyelination. In words: Therapeutic treatment of CPZ-induced demyelination in vivo (LFB staining). The settings on record: for Demyelination (Score of LFB staining): score 0 complete myelination, 4 complete demyelination, average ± SEM; for recovery from CPZ-induced demyelination and axon damage: therapeutic treatment, Examples 12 and 13. Also on record: species or system mice. How it is done: As shown in FIGS. 12A-12C, the compound of the present invention was also tested in vivo to determine its therapeutic effect on promoting remyelination on CPZ-induced demyelination in comparison to DMF. Schematic of the study is depicted in FIG. 12A. Eight-week old mice were fed a diet containing 0.3% (w/w) of CPZ to induce demyelination for 6 weeks. The control mice received regular mouse chow. The CPZ fed mice received oral gavage of formulation (Vehicle), DMF or Compound 1 at the beginning of week 6 for two weeks. At the end of treatment, the brains were collected and, post fixed, processed for analysis. The myelin was stained with LFB stain. Representative images of LFB staining of mouse brain sections are shown in FIG. 12B where midline corpus callosum (CC) is delineated by squares in the top panels (scale bar: 200 μm) and then shown at higher magnification in the lower panels (scale bar: 25 μm). Quantitative analysis of myelination of LFB staining is shown in FIG. 12C where myelination is scored as follows: a score of 0 means complete myelination and a score of 4 means complete demyelination. *p<0.05, *** p<0.001 compared with CPZ with vehicle treatment (n=4-6 mice).
(§1) According to the above Examples 12 and 13, the therapeutic effects of Compound 1 and DMF on CPZ-induced demyelination and axon damage were summarized below where quantitative analysis of myelination and axon integrity in adult female mice was performed and results shown in Table 1. The scoring of myelination and axon damage was performed as described in Example 12 and Example 13. The treatments are as indicated. The average scores and SEM are shown. Statistic differences were analyzed by one way ANOVA followed by Tukey test. *p<0.05, **p<0.01, […] compared with normal control; #p<0.05, ##p<0.01, ###p<0.001 compared with CPZ plus vehicle, §§p<0.01 compared with CPZ plus DMF at 10 mg/kg (n=4-6 mice).

Another data set deals with IGF-2. In words: IGF-2 in plasma of CPZ MS animal model (ELISA). The data set is classed as in vivo. Particulars: 10 mg/kg oral gavage for 7 weeks, CPZ fed mice. The source says: IGF2 is a neurotrophic factor which is essential for the development and regeneration of the nervous system, and plays a pivotal role in adult neurogenesis and cognitive function (see Fernadez A M and Torres-Aleman I, 2007, Nat Rev Neurosci 13(4):225-39; Iwamoto T and Ouchi Y, 2014, Rev Neurosci 25(4):559-74). […] FIG. 11A illustrates the schematic of the study. Experimental setup was similar to that in Example 9: eight-week old female mice were fed a diet containing 0.3% (w/w) of CPZ to induce demyelination for 6 weeks. The control mice received regular mouse chow. In the meantime, CPZ fed mice received oral gavage of formulation (Vehicle) or Compound 1 (10 mg/kg) for 7 weeks. At the end of treatment, the plasma was collected and processed for analysis. The levels of IGF-2 in mouse plasma were measured using ELISA. The scatter plot of IGF-2 concentrations found in individual mice is shown in FIG. 11B. **p<0.01 of CPZ plus Compound 1-treated group compared with control (Ctl), or CPZ-treated group (n=4).
On the technique in general: ELISA stands for enzyme-linked immunosorbent assay.

For data set [2], the system named is CPZ-induced axon damage. In words: Therapeutic treatment of CPZ-induced axon damage in vivo (silver staining). Also on record: species or system mice. The settings on record: score 0 no axon damage, 4 complete axon damage, average ± SEM.
Text: Schematic of this study is depicted in FIG. 13A. Eight-week old female mice were fed a diet containing 0.3% (w/w) of CPZ to induce demyelination for 6 weeks. The control mice received regular mouse chow. The CPZ fed mice received oral gavage of formulation (Vehicle), DMF or Compound 1 at the beginning of week 6 for two weeks. At the end of treatment, the brains were collected, and post fixed, processed for morphological analysis. The axons were stained with Bielschowsky's Silver staining. Representative images of silver staining of mouse brain sections are shown in FIG. 13B where midline corpus callosum (CC) is delineated by white squares in the top panels (scale bar: 200 μm) and then shown at higher magnification in the lower panels (scale bar: 25 μm). Quantitative analysis of axon damage of silver staining is shown in FIG. 13C where axon damage is scored as follows: a score of 0 means no axon damage, and a score of 4 means complete axon damage. **p<0.01, ***p<0.001 compared with CPZ plus vehicle; ##p<0.01 compared with CPZ plus DMF (n=4-6 mice).
as §1

A further data set concerns MBP, NF, APP, GFAP, Iba1. In words: Molecular markers for myelination, axon integrity and glia activation in brain sections (immunofluorescence). The data set is classed as in vivo, mouse. The settings on record: CPZ + 10 mg/kg, trend versus CPZ. The protocol:
Effects of Compound 1 on molecule markers relevant to myelination, axon integrity and gliosis were also examined in the brain sections from normal control, CPZ-treated, and CPZ plus Compound 1 treated animals. Molecules in mouse brain sections were stained with respective antibodies by immunofluorescence. The fluorescent intensity of MBP- and NF-labeled fibers were measured with Image J. The number of specific antibody-stained cells in 400×microscopic fields were counted. Although statistic analysis is still in progress, the trends of the effects are clear from the images available so far.

Data set [3] deals with cerebellar slices. In words: Remyelination on LPC-induced demyelination in cerebellar slices (MBP immunofluorescence). The data set is classed as cell-based, mice. The settings on record: 50 μM, 3 days in culture, LPC 2 mg/mL. The protocol:
Specifically, cerebellar slices from 8 week-old female mice were treated with lysophosphatidylcholine (LPC, 2 mg/mL) to induce demyelination, and then treated with representative compound of the invention, Compound 1 (50 μM), for 3 days in culture. The slices were processed for immunofluorescence staining with anti-MBP antibody. The images were captured with Nikon eclipse TE2000 microscope using Spot Advanced software (version 4.3) at 4×magnification.

Data set [4] concerns CPZ-induced demyelination. In words: Prophylactic treatment of CPZ-induced demyelination in vivo (LFB staining). Also on record: species or system mice. The settings on record: 10 mg/kg oral gavage for 7 weeks, formulations HPC or GHI F505-1. The protocol:
As shown in FIGS. 9A-9C, the compound of the present invention (Compound 1) was able to prevent CPZ-induced demyelination in adult female mice. FIG. 9A illustrates the schematic of the study. Eight-week old female mice were fed a diet containing 0.3% (w/w) of CPZ to induce demyelination for 6 weeks. The control mice received regular mouse chow. In the meantime, CPZ fed mice received oral gavage of formulation (Vehicle) or Compound 1 (10 mg/kg) for 7 weeks. At the end of the treatment, mice were perfused, and the brains were collected and processed for analysis. The extent of myelination was examined by staining with Luxol Fast Blue (LFB). Representative images of LFB staining of mouse brain sections are shown in FIG. 9B where midline corpus callosum (CC) is delineated by dotted squares in the top panels (scale bar: 200 μm) and then shown at higher magnification in the lower panels (scale bar: 25 μm). Myelinated axons in the CC from mice fed with normal chow are stained as compacted blue (shown here as gray-colored, same for all following blue-colored pictures). […] Quantitative analysis of myelination of LFB staining is shown in FIG. 9C where myelination is scored as follows: a score of 0 means complete myelination and a score of 4 means complete demyelination. […]

The subject of the next data set is EAE mouse model. In words: Clinical score of mouse EAE model (pilot study). The data set is classed as in vivo, C57/BL6 mice. The settings on record: 10 mg/ml daily from EAE onset for 20 days. The protocol: EAE mouse model was induced by inoculation of MOG35-55 protein in adult C57/BL6 mice. Mean clinical score of EAE mice treated with vehicle or Compound 1 (10 mg/ml) for a duration of 42 days after immunization was shown in FIG. 14. The treatments were applied daily from the date of EAE onset for 20 days.

Data set [5] has as its system cerebellar slices. In words: Remyelination on CPZ-induced demyelination in cerebellar slices (MBP immunofluorescence). The data set is classed as cell-based, mice. Particulars: 50 μM, 3 days in culture. The protocol:
Specifically, cerebellar slices from 8 week-old female mice were treated with cuprizone (CPZ) to induce demyelination, and then treated with representative compound of the invention Compound 1 (50 μM) for 3 days in culture. The slices were processed for immunofluorescence staining with anti-MBP antibody. The images were captured with Nikon eclipse TE2000 microscope using Spot Advanced software (version 4.3) at 4×magnification. The fluorescence intensity of MBP of the cerebellar slice in each image was measured with NIH Image J.

The subject of data set [6] is CPZ-induced axon damage. In words: Prophylactic treatment of CPZ-induced axonal damage in vivo (Bielschowsky's silver staining). Particulars: 10 mg/kg oral gavage for 7 weeks, formulations HPC or GHI F505-1. The arrangement: species or system mice. The source says:
The mice were fed and treated with the same method as Example 9. The Bielschowsky's silver staining was used to visualize axon fiber in mouse brains. Representative images of silver staining of mouse brains sections are shown in FIG. 10A where midline corpus callosum (CC) is delineated by dotted squares in the top panels (scale bar: 200 μm) and then shown at higher magnification in the lower panels (scale bar: 25 μm). While a linear staining pattern of continuous axon fibers is present in normal control CC, axon damage with interruption of axon fibers and demyelination is observed in the CC of CPZ-treated animals. […] Quantitative analysis of silver-stained axons is shown in FIG. 10B where axon damage is scored as follows: a score of 0 means no axon damage and a score of 4 means complete axon damage. Columns “10-A” and “10-B” indicate samples treated with Compound 1 at 10 mg/kg in formulations HPC or GHI F505-1, respectively. *p<0.05, ***p<0.001 compared with control; ## p<0.01 compared with CPZ with vehicle treatment (n=4 mice).

A further data set has as its system Microglia. In words: LPS/IFN-induced microglia activation (Iba1 positive cells). The data set is classed as cell-based, mice. Particulars: 50 μM, LPS 10 ng/mL and IFN 20 ng/ml, 48 hours. How it is done:
Microglia from P7 mice were treated with lipopolysaccharide (LPS, 10 ng/mL) and Interferon-gama (IFN, 20 ng/ml) to induce activation of microglia for 48 hours. To determine the effects on LPS/IFN-induced microglia activation, DMF or various embodiments of compounds of the invention (all at 50 μM) were individually added into separate culture samples 30 minutes after LPS/IFN were added. Cells were later fixed and processed for immunofluorescence (IF) staining with anti-Iba1 (ionized calcium-binding adaptor molecule 1) antibody. The number of Iba1 positive cells and the total number of cells (Hochest H33342 positive cells which includes dead and live cells) were quantified from 12 consecutive areas under fluorescent microscope with 20×objective.

The subject of data set [7] is adult cerebellar granule neurons (CGN). In words: Adult CGN survival (Cell Counting Kit-8). The data set is classed as cell-based, mice. Particulars: 50 μM and 10 μM, 48 hours. How it is done:
CGN cells from 8 week-old female mice (C57BL/6) were maintained in neurobasal medium with B27 supplements. 2×10^5 cells were plated in each well of a PLL-coated 48 well plate with 400 μl of culture medium. Various embodiments of novel compounds of the invention at 50 μM (FIG. 8A) and 10 μM (FIG. 8B), CNTF (10 ng/mL) or DMF (50 μM) were added respectively into the cell culture samples for 48 hours. Cell counting solution (Cell Counting Kit-8, Dojindo, 40 μL) was added to the culture, and cells were incubated at 37° C. with 5% CO2 for 20 hours. The optical densities (OD) of absorbance at 450 nm were measured with SpectraMax M3 plate reader.

Setting [8] is: 0.1 mg/kg oral gavage for two weeks.
The mark [9] stands for this setting: 10 mg/kg oral gavage for two weeks.

`COC(=O)/C=C/C(=O)OCc1ccc(COC(=O)NC(=N)NC(=N)N(C)C)cc1` [Compound 1]: the “Demyelination (Score of LFB staining)” value in data set [1] (setting [8]) came out at 2.00 ± 0.26. Further, the “Demyelination (Score of LFB staining)” value in [1] (setting [9]) is reported as 1.33 ± 0.21. Also, the “recovery from CPZ-induced demyelination and axon damage” value in [1] is reported as “robust recovery”. In addition, in the data set on IGF-2, the “level of IGF-2 in mouse plasma” value is reported as “significantly increase”. The “Axon damage (Score of Silver staining)” value with CPZ-induced axon damage [2] (setting [8]) is given as 1.33 ± 0.21. In addition, the “Axon damage (Score of Silver staining)” value with CPZ-induced axon damage [2] (setting [9]) was 0.83 ± 0.31. Further, in the data set on MBP, NF, APP, GFAP, Iba1, the “APP (Axonal damage)” value is listed as “↓”, the “GFAP (Astrogliosis)” value is “↓”, the “Iba 1 (Activated microglia)” value is “↓” and the “MBP (Myelin)” value was “↑”. In the data set with MBP, NF, APP, GFAP, Iba1, the “NF (Neural fibers)” value is given as “↑”. Further, the “remyelination on LPC-induced demyelination (MBP fluorescence intensity)” value in the data set with cerebellar slices [3] is “strong remyelination effects”. In addition, in data set [4], the “prevention of CPZ-induced demyelination (LFB staining)” value is “prevents CPZ-induced demyelination”. Moreover, in the data set on EAE mouse model, the “persistence of effect on clinical score after termination of treatment” value is given as “persisted for over two weeks after termination of treatment”. Further, in the data set on EAE mouse model (42 days after immunization, n=5), the “average clinical scores versus vehicle” value is on record as “significantly lower average clinical scores”. The “remyelination on CPZ-induced demyelination (MBP fluorescence intensity)” value in the data set on cerebellar slices [5] is listed as “promotes remyelination”. Further, the “prevention of CPZ-induced axon damage (silver staining)” value in the data set on CPZ-induced axon damage [6] was “preserved the continuous staining pattern of axon fibers”. In addition, the “inhibiting microglia activation (Iba1 positive cells)” value in the data set with Microglia is recorded as “significantly better efficacy in comparison to DMF”.
With `COC(=O)/C=C/C(=O)OCCCCCCOC(=O)NC(=N)NC(=N)N(C)C` [Compound 2], the “inhibiting microglia activation (Iba1 positive cells)” value in the data set on Microglia was “significant capability for inhibiting microglia activation”.
For `COC(=O)/C=C/C(=O)OC` [DMF, dimethyl fumarate, reference compound], the “Demyelination (Score of LFB staining)” value in data set [1] (setting [9]) came to 2.25 ± 0.25. The “recovery from CPZ-induced demyelination and axon damage” value in data set [1] is “not significant”. Also, the “effect on adult CGN survival” value in data set [7] is given as “little effect”. In the data set on CPZ-induced axon damage [2] (setting [9]), the “Axon damage (Score of Silver staining)” value is 2.25 ± 0.25.
